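Briefly, cells in 96-well plates were exposed to five compound concentrations for 48 h, and endpoints were estimated by linear interpolation. Here, GI50 denotes the concentration required for 50% inhibition of growth.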 Activity calls are given as the source filed them. Cut-off read from the data, not from the text of the source: active = GI50 up to about 1.1 µM and inactive = higher.
Columns and labels:
Assay in all cases: inhibition of tumour cell growth, NCI panel, 48 h
[1] = test system: K562
[2] = test system: HL-60
[3] = test system: 786-0
[4] = test system: KM12
[5] = test system: Hs-578T
[6] = test system: COLO 205
[7] = test system: PC-3
[8] = test system: SN12C
[9] = test system: NCI-H522
[10] = test system: SF-295
[11] = test system: MCF7
[12] = test system: EKVX
[13] = test system: UO-31
[14] = test system: MOLT-4
[15] = test system: SW-620
[16] = test system: OVCAR-5
[17] = test system: TK-10
[18] = test system: MDA-MB-231
[19] = test system: MDA-N
[20] = test system: RXF 393

Measured: GI50

Cc1sc2ncnc(NCCc3ccccc3)c2c1C
inactive: [1] 2 µM | [2] 9.02 µM | [3] 16 µM | [4] 13.4 µM | [5] 20.7 µM | [6] 11 µM | [7] 17.3 µM | [8] 10.6 µM | [9] 8.59 µM | [10] 4.78 µM | [11] 12.5 µM | [12] 1.68 µM | [13] 15.6 µM | [14] 14.9 µM | [15] 25.5 µM | [16] 15.4 µM | [17] 11.4 µM | [18] 14.6 µM | [19] 10.1 µM | [20] 12.3 µM

CC(CC(=O)O)C(C(=O)O)C(=O)O (stereo not given)
inactive: [1] > 100 µM | [2] > 100 µM | [3] > 100 µM | [4] > 100 µM | [5] > 100 µM | [6] > 100 µM | [7] > 100 µM | [8] > 100 µM | [9] > 100 µM | [10] > 100 µM | [11] > 100 µM | [12] > 100 µM | [13] > 100 µM | [14] > 100 µM | [15] > 100 µM | [16] > 100 µM | [17] > 100 µM | [18] > 100 µM | [19] > 100 µM | [20] > 100 µM

CC12Nc3ccccc3N1C(=O)c1ccccc12 (stereo not given)
inactive: [1] > 100 µM | [2] > 100 µM | [3] > 100 µM | [4] > 100 µM | [5] > 100 µM | [6] > 100 µM | [7] > 100 µM | [8] > 100 µM | [9] > 100 µM | [10] > 100 µM | [11] > 100 µM | [12] > 100 µM | [13] > 100 µM | [14] > 100 µM | [15] > 100 µM | [16] > 100 µM | [17] > 100 µM | [18] > 100 µM | [19] > 100 µM | [20] > 100 µM

O=C1C(=CNC(=S)c2ccccc2)C(=O)c2ccccc21
inactive: [1] 30.1 µM | [2] 4.28 µM | [3] 27.5 µM | [4] 62.1 µM | [5] 54 µM | [6] 69.7 µM | [7] 63.2 µM | [8] 46.7 µM | [9] 21 µM | [10] 91 µM | [11] 35.2 µM | [12] 60.8 µM | [13] 25.8 µM | [14] 27.5 µM | [15] 55.8 µM | [16] > 100 µM | [17] 41.6 µM | [18] 55.2 µM | [19] 52.7 µM | [20] 46.7 µM

CC[C@]1(c2ccc3c(c2)OCO3)C=[N+]([O-])O[C@H](OC2CCCC2(c2ccccc2)c2ccccc2)[C@@H]1OC(C)=O (stereo not given in full)
inactive: [1] 2.36 µM | [2] 2.87 µM | [3] 1.77 µM | [4] 1.77 µM | [5] 3.16 µM | [6] 2.23 µM | [7] 3.24 µM | [8] 3.15 µM | [9] 1.77 µM | [10] 1.32 µM | [11] 2.47 µM | [12] 2.42 µM | [13] 2.05 µM | [14] 2 µM | [15] 2.96 µM | [16] 3.83 µM | [17] 3.27 µM | [18] 4.01 µM | [19] 3.83 µM | [20] 1.27 µM

CCOC(=O)c1ccc(C(=O)/C(C#N)=C2\CCCN2C)[nH]1
inactive: [1] > 100 µM | [2] > 100 µM | [3] > 100 µM | [4] > 100 µM | [5] > 100 µM | [6] > 100 µM | [7] > 100 µM | [8] > 100 µM | [9] > 100 µM | [10] > 100 µM | [11] > 100 µM | [12] > 100 µM | [13] > 100 µM | [14] > 100 µM | [15] > 100 µM | [16] > 100 µM | [17] > 100 µM | [18] > 100 µM | [19] > 100 µM | [20] > 100 µM

From ChEMBL document CHEMBL1201862, “PubChem BioAssay data set” (2004)
